Values joined by “and” are separate entries in the source; they are usually repeats but may differ in a detail not shown here. Identical values can stand only once. Like-named read-outs stand apart in the source and are kept apart here.
Tests used:
[1] = target: T1, normal CSF Aβ42 (Homo sapiens, UniProt P05067); assay: NMPA with detergent washing: background from unspiked CSF, Abeta42; type: binding; conditions: CSF; PSR1 beads treated with detergent post capture
T1 construct: reduced the detection of normal CSF Aβ42 to the background levels; from tissue; host or cells: pooled normal cerebrospinal fluid
Method: Second, two neutral detergents, polyethylene glycol sorbitan monolaurate (available as TWEEN 20 from Sigma-Aldrich, St. Louis, Mo.) and n-tetradecyl-N,N-dimethyl-3-ammonio-1-propanesulfonate (available as ZWITTERGENT 3-14 from EMI) Chemicals, Gibbstown, N.J.) were used to treat the globulomer-spiked CSF samples that had been contacted with PSR1 beads. For each assay, a mixture of 30 μl of PSR1 beads (coated at about 7-12 nmol PSR1 ligand/mg DYNAL beads, which were used in this example and in the following examples unless otherwise stated) and 70 μl of 1×TBSTT was immediately pipetted into each well on the pulldown plate. The liquid was removed on a magnetic separator. Fifty micro liters of 5×TBSTT was added to each well. The beads were suspended by briefly shaking at 750 rpm. Next […] of TBSTT or CSF sample without globulomer was added to each well. The pulldown plate was sealed and incubated at 37° C. for 1 hour with shaking at 500 rpm. After incubation, the beads were washed 8 times with TBST on the plate washer. After the plate wash, residual TBST buffer was removed from the beads on the magnetic separator. The beads were then incubated with 100 μl of either TBS, 1% Tween20 or 1% Zwittergent 3-14 for 30 minutes at room temperature at 750 rpm, (followed by an additional 8 washes with TBST on the plate washer. After removing residual TBST on the magnetic separator, 20 μl of denaturing solution, typically 0.1-0.15 N NaOH, was added to the beads. The plate was covered with an aluminum foil plate sealer and incubated at 80° C. for 30 minutes with shaking at 750 rpm. After incubation, the plate was cooled to room temperature and twenty micro liters of neutralizing solution, typically 0.12-0.18 M NaH2PO4+0.4% Tween20) was added into each well and the plate was incubated at room temperature for 5 minutes with shaking at 750 rpm. […] MSD Abeta Triplex Assay was preformed according to the manufacturer's instructions.
A summary of the assay results and calculated signal/noise is shown below in Table 17.

[2] = target: Abeta 42 globulomer (Homo sapiens, UniProt P05067); assay: NMPA with detergent washing after PSR1 pulldown: globulomer detection; type: binding
[3] = target: T2, oligomeric beta amyloid 1-42 (globulomer) (Homo sapiens, UniProt P05067); assay: Misfolded Protein Assay: capture of globulomer spiked into CSF (Example 2); type: binding; conditions: globulomer-spiked CSF vs normal CSF; reagent on Dynal M270 beads
T2 construct: beta amyloid (1-42) was monomerized with incubation in hexafluoroisopropanol
Method: To assess the ability of these reagents to capture protein aggregates, the previously described Misfolded Protein Assay or MPA (Lau et al., 2007, PNAS, 104: 11551) was used (FIG. 3). In this assay, the capture reagent of interest is attached to beads which are incubated with a sample of interest containing a mixture of normal monomeric and aggregated proteins to allow for capture and then washed to remove unbound material. After this enrichment step, an elution buffer is used to dissociate the captured material from the beads as well as to denature any aggregates. The eluted material is then applied to a sandwich ELISA that is specific for the protein of interest. Strong aggregate-binding reagents acting as effective capture reagents show a high signal from the sample containing a mixture of monomers and aggregates, but not from the control sample, which contains only physiologic levels of monomeric protein.
Beads displaying carboxylic acids were treated with EDC and BMPH to create maleimide-displaying beads, to which thiolated peptides (or other thiolated organic molecules) were added through a Michael addition reaction. Dynal M270 magnetized beads (30 mg/mL bead) displaying carboxylic acids were vortexed and placed into a 15 ml falcon tube. The tube was placed into a magnet, and the supernatant removed. The beads were washed 2 times with 0.1 M MES buffer, pH 5, and then the washing buffer was removed. The coupling solution (33 mM BMPH, 130 mM EDC in MES buffer) was added, and the tube was rocked for 30 minutes at room temperature. After washing in 1×MES, 1× Tris, pH 7.5, the beads were quenched with Tris buffer (50 mM Tris buffer, pH 7.5) for 15 minutes. The beads were then washed 2 times in phosphate buffer and added to 5 mM thiolated ligand in degassed phosphate. The beads were rotated for 21 hours, then washed in 0.1 M phosphate buffer, pH 7, 1×PBS, and stored.
To prepare the globulomer, beta amyloid (1-42) was monomerized with incubation in hexafluoroisopropanol. The hexafluoroisopropanol was removed by vacuum centrifugation. DMSO, PBS, and 2% SDS were then added to the sample. The sample was vortexed and sonicated and then incubated at 37° C. After 6 hours, the sample was diluted with water, vortexed, and incubated at 37° C. for an additional 19 hours. The sample was ultracentrifuged at 135000×g for 1 hour at 4° C., and the supernatant retained. The globulomers were spiked into CSF for the assay.
Aliquots of beads conjugated to various reagents were added to wells of a 96-well plate. Globulomer-spiked CSF in a Tris buffer was added to each well, and the plates were incubated for 1 hour at 37° C. with shaking. For the negative control, normal CSF was used, which is considered to contain only monomers of beta amyloid. The beads were washed with TBST wash buffer, and bound materials were eluted with a denaturing solution (typically 0.1-0.15 N NaOH). A reconditioning buffer was added to the eluate prior to beta amyloid detection via a beta amyloid (1-42) specific sandwich ELISA.
In order to determine the amount of ligand loading, amine quanitation was used. Aliquots of beads were placed in a magnet, and the supernatant removed. 80% phenol in ethanol, 0.2 mM KCN in pyridine/water, and 6% ninhydrin in ethanol was added to each tube. The aliquots were vortexed and heated for 7 minutes at 100° C. After cooling to room temperature, 60% ethanol was added. The tubes were placed in a magnet, and the absorbance of the supernatant at 570 nm was determined. The loading of the beads was determined according to Beer's law, using the extinction coefficient of 15000 M-1 cm-1.
Beads (3 ul or 15 ul) were added to samples containing 0.5 ng/mL globulomer spiked into CSF. […] For PSR1, this limit was ˜5 nmol ligand/mg bead for binding preferentially to globulomer. […]

[4] = target: T3, Abeta 1-42 globulomer (Homo sapiens, UniProt P05067); assay: Globulomer capture assay in CSF (Example 6); type: binding
T3 construct: beta amyloid (1-42) was monomerized with incubation in hexafluoroisopropanol
Method: (§1) A series of new potential aggregate-specific binding reagents were designed as shown below and conjugated onto magnetic Dynal M270 beads as described in Example 2. Typically 7-12 nmol of ligand (each candidate aggregate-specific binding reagent) was coated onto 1 mg of beads.
(§2) Aliquots of the beads (typically 3 ul) were added to wells of a 96 well plate, followed by sample (with or without Abeta 1-42 globulomer (an Abeta42 oligomer model) spiked in 80:20 CSF:TBSTT, typically 125 ul). The plate was sealed and incubated for 1 hour at 37° C. with shaking. The plate was washed with aqueous solutions of detergent (typically polyethylene glycol sorbitan monolaurate and n-tetradecyl-N,N-dimethyl-3-ammonio-1-propanesulfonate) to remove ubound material and the residual buffer removed. A denaturing solution (typically 0.1-0.15 N NaOH) was added to each well and the plate heated to 80° C. for 30 min with shaking. After cooling the plate to room temperature, a neutralizing buffer (typically 0.12-0.18 M NaH2PO3 in 0.4% TWEEN20,) was added and the plate was shaken briefly at room temperature. The bead eluate was analyzed using either an Aβ42-specific ELISA or the MSD® 96-Well MULTI-SPOT® Human/Rodent [4G8] Abeta Triplex Ultra-Sensitive Assay from Meso Scale Discovery (Gaithersburg, Md.). For the Aβ42-specific assay, the samples were eluted from the beads and a detection antibody (4G8 HRP) was added to a plate bearing the Aβ42-specific antibody 12F4. The plate was incubated for 1 hour, washed, the substrate was added (SuperSignal West Femto Maximum Sensitivity Substrate from Thermo Fisher, Rockville, Md.), and the luminescence was measured. The MSD plate assay was performed in a similar fashion, according to the manufacturer's protocol.
(§3) In this experiment the preferred number of charges within a given scaffold was identified. An Ala/Lys peptide framework was utilized, where the inclusion of each Lys residue increases the peptides' net charge by +1. Six hexapeptides with increasing charge (+1→+6), AAAKAA, AAKKAA, AAKKKA, AKKKKA, AKKKKK, and KKKKKK, were prepared and conjugated on the beads. The ability of these beads to capture Abeta 1-42 globulomer spiked at 1 ng/mL into CSF was tested, and the result is shown in FIG. 25. The globulomer capture level (“42 1 ng/ml” or the closed bars) was compared to the background signal of Abeta 1-42 detected in the unspiked CSF (“42 0 ng/ml”) and the background signal of Abeta 1-40 detected in unspiked CSF (“40 0 ng/ml”) or CSF spiked with AB42 oligomers “40 1 ng/ml”. The charge density, as conjugated to the magnetic beads, of each reagent evaluated in this experiment is shown below in Table 8.

[5] = target: T4, Abeta 1-40 monomer (Homo sapiens, UniProt P05067); assay: Globulomer capture assay in CSF (Example 6): Abeta 1-40 noise; type: binding; conditions: Abeta 1-40 signal (noise), CSF samples
T4 construct: Abeta 1-40 monomer capture level; from tissue; host or cells: cerebrospinal fluid (matrix of the assay)
Method: as §1, §2, §3

[6] = target: PrP^Sc (Mesocricetus auratus, UniProt P04273)
[7] = system: tau aggregates; type: binding, human
[8] = target: T5, Aβ(1-42) aggregates (Homo sapiens, UniProt P05067); type: binding
T5 construct: For Aβ(1-42), 10 nL of 10% brain homogenate was added to each well; from tissue; host or cells: Alzheimer's disease patient brain homogenate

[9] = target: T6, Aβ40 aggregates in AD CSF (Homo sapiens, UniProt P05067); assay: Discrimination between AD and normal CSF; type: binding; conditions: AD CSF; detergent wash; data not shown
T6 construct: from tissue; host or cells: pooled cerebrospinal fluid (normal or AD)
Method: The Ab42 aggregates were prepared as previously described: fibrils were prepared per Stine et al (JBC 2003, 278, p11612), globulomers were prepared per Barghorn et al (J Neurology 2005 95 p834), ADDLs were prepared per Lambert et al (PNAS 1998, 95 p6448), and ASPDs were prepared per Noguchi et al (JBC 2009 284 p32895). Normal CSF was pooled from clinically characterized non-demented patient CSF samples. AD CSF was pooled from clinically-characterized AD patient samples. Alzheimer's Disease Brain Homogenate (ADBH) was prepared by sonication of clinically diagnosed AD patient brain samples in 0.2M.sucrose (1:10 w/v).
For the capture assay (Misfolded Protein Assay), aliquots of the beads (30 ul) were added to wells of a 96 well plate, followed by 125 ul of sample in 80:20 CSF:TBSTT. The plate was sealed and incubated for 1 h at 37 C with shaking. The plate was washed with TBST and the residual buffer removed. A denaturing solution (0.1 N NaOH) was added to each well and the plate heated to 80 C. for 30 min with shaking. After cooling the plate to RT, a neutralizing buffer (0.12 M NaH2PO3-0.4% TW20,) was added and the plate shaken briefly at RT. The assay was analyzed using the triplex Mesoscale Discovery ELISA kit for Aβ. The Aβ in the samples eluted from the beads were detected per the manufacturer's protocol.
For discriminating between AD and normal CSF, pooled normal CSF or pooled Alzheimer's Disease patient CSF, were assayed per the protocol described above.

[10] = 0.5 ng/mL vs 0 ng/mL globulomer
[11] = Abeta 42 RLU at 0.5 ng/mL over average Abeta 40 RLU
[12] = CSF, PSR1 beads treated with detergent post capture

PrP^Sc, sequence (P04273 23-231 limits assumed): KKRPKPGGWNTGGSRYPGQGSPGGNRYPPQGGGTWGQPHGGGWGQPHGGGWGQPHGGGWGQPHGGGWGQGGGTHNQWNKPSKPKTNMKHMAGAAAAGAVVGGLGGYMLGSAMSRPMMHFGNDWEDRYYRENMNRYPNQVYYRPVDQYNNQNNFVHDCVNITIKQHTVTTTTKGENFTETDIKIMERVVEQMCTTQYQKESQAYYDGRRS

Question: With `CCCCCCCC[N+](C)(C)CCCS(=O)(=O)[O-]` [ZW3-08] as the molecule, how does the “Abeta 42 RLU, 0 ng/mL Abeta 42 globulomer, Average” value [1] read?
Answer: 97.7 RLU

Question: What about the “Abeta 42 RLU, 0.5 ng/mL Abeta 42 globulomer, Average” value [2] of the same molecule?
Answer: 668.7 RLU

Question: What about the “S/N Abeta 42 globulomer-spiked/Abeta 40” value [2] of the same molecule?
Answer: 0.9

Question: And the “S/N Abeta 42 globulomer-spiked/unspiked” value [2]?
Answer: 6.8

Question: Which “capture of oligomers (relative light units from the Abeta ELISA)” value [3] does the source give for DDDDDD here?
Answer: little enrichment of the oligomeric species

Question: HHHHHH was tested. Which “capture of oligomers (relative light units from the Abeta ELISA)” value [3] did it give?
Answer: little enrichment of the oligomeric species

Question: Which “capture of oligomers (relative light units from the Abeta ELISA)” value [3] does the source give for KKKKKK here?
Answer: significant capture

Question: And the “42:40 (signal:noise ratio)” value ([4]; 1 ng/ml average reading, ratio of 42 to 40)?
Answer: 3.3

Question: What about the “42, 1 ng/ml average reading” value ([4]; Abeta 1-42 globulomer spiked at 1 ng/mL into CSF) of the same molecule?
Answer: 658 RLUs

Question: What about the “40, 1 ng/ml average reading” value [5] of the same molecule?
Answer: 197 RLUs

Question: Which “capture of oligomers (relative light units from the Abeta ELISA)” value [3] does the source give for KKKWKW here?
Answer: increased capture efficiency relative to the corresponding peptides with aliphatic hydrophobic residues or no hydrophobic residues

Question: With Nab-Nab-Nab-Nab-Nab-Nab [++++++] as the molecule, how does the “PrP^Sc capture signal” value [6] read?
Answer: Signal was observed with the 100 or 300 ng/mL spike levels

Question: What does the source list for Nab-Nab-Nab-Nab-Nab-Nab-Nab [+++++++]?
Answer: total Tau signal, AD vs normal brain homogenate [7]: higher signals in the AD samples relative to the normal brain homogenates; limit of detection for Aβ(1-42) capture [8]: 1.6 mL/assay and 2.5 mL/assay

Question: What does the source list for “n-Dodecyl-N,N-dimethyl-3-ammonio-1-propanesulfonate [ZW3-12]”?
Answer: Abeta 42 RLU, 0 ng/mL Abeta 42 globulomer, Average [1]: 90.7 RLU; S/N Abeta 42 globulomer-spiked/unspiked [2, 10]: 7.1; S/N Abeta 42 globulomer-spiked/Abeta 40 [2, 11]: 1.4; Abeta 42 RLU, 0.5 ng/mL Abeta 42 globulomer, Average [2, 12]: 642.0 RLU

Question: What does the source list for “n-Hexadecyl-N,N-dimethyl-3-ammonio-1-propanesulfonate [ZW3-16]”?
Answer: Abeta 42 RLU, 0 ng/mL Abeta 42 globulomer, Average [1]: 67.0 RLU; Abeta 40 aggregates capture S/N [9]: improved Abeta 40 aggregates capture S/N even more significantly in AD CSF; signal/noise of globulomer detection [2]: improved the signal/noise ratio for Abeta 42 globulomer detection more significantly; S/N Abeta 42 globulomer-spiked/unspiked [2, 10]: 10.9; S/N Abeta 42 globulomer-spiked/Abeta 40 [2, 11]: 3.7; Abeta 42 RLU, 0.5 ng/mL Abeta 42 globulomer, Average [2, 12]: 730.7 RLU

— patent US20130109581A1, “POSITIVELY CHARGED SPECIES AS BINDING REAGENTS IN THE SEPARATION OF PROTEIN AGGREGATES FROM MONOMERS” (priority 2009, published 2013)
